Patent publication US8383619B2, “Pharmaceutical compounds” (Astex Therapeutics Limited, priority 2008, dated 2013)

Experiments:
Assay type in all cases: cell-based
[1] = tested on: ARH-77; test: Anti-proliferative assay (Oncodesign); settings: Homo sapiens; ARH-77 (BLOOD); read-out: IC50 (Concentration of test compound)
Method: (§1) The anti-proliferative activities of the parent compounds of the pro-drugs of the invention may be determined by measuring the ability of the compounds to inhibition of cell growth in a number of cell lines such as the human colon cancer cell line HCT116. Inhibition of cell growth is measured using the Alamar Blue assay (Nociari, M. M, Shalev, A., Benias, P., Russo, C. Journal of Immunological Methods 1998, 213, 157-167). The method is based on the ability of viable cells to reduce resazurin to its fluorescent product resorufin. For each proliferation assay cells are plated onto 96 well plates and allowed to recover for 16 hours prior to the addition of inhibitor compounds for a further 72 hours. At the end of the incubation period 10% (v/v) Alamar Blue is added and incubated for a further 6 hours prior to determination of fluorescent product at […]. In the case of the non-proliferating cell assay cells are maintained at confluence for 96 hour prior to the addition of inhibitor compounds for a further 72 hours. The number of viable cells is determined by Alamar Blue assay as before. Cell lines may be obtained from the ECACC (European Collection of cell Cultures).
(§2) The parent compound of the pro-drugs of Examples 1 to 25 i.e. (2,4-dihydroxy-5-isopropyl-phenyl)-[5-(4-methyl-piperazin-1-ylmethyl)-1,3-dihydro-isoindol-2-yl]-methanone, in the form of its L-lactate salt, was tested in anti-proliferative assays against one hundred cell lines by Oncodesign (Dijon, France). The IC50 values against each cell line are set out in the table below and the figures in the table refer to nanomolar concentrations. The compounds were tested up to a concentration of 10,000 nanomolar.

[2] = tested on: LB996-RCC; test: Anti-proliferative assay (Oncodesign); settings: LB996-RCC (KIDNEY); read-out: IC50 (Concentration of test compound)
Method: as §1, §2

[3] = tested on: SUP-B15; test: Anti-proliferative assay (Oncodesign); settings: Homo sapiens; SUP-B15 (BLOOD); read-out: IC50 (Concentration of test compound)
Method: as §1, §2

[4] = tested on: LB11-SCLC/OC1; test: Anti-proliferative assay (Oncodesign); settings: LB11-SCLC/OC1 (LUNG); read-out: IC50 (Concentration of test compound)
Method: as §1, §2

[5] = tested on: PA-1; test: Anti-proliferative assay (Oncodesign); settings: Homo sapiens; PA-1 (OVARY); read-out: IC50 (Concentration of test compound)
Method: as §1, §2

[6] = tested on: A-375; test: Anti-proliferative assay (Oncodesign); settings: Homo sapiens; A-375 (SKIN); read-out: IC50 (Concentration of test compound)
Method: as §1, §2

[7] = tested on: UZG4-MEL; test: Anti-proliferative assay (Oncodesign); settings: UZG4-MEL (SKIN); read-out: IC50 (Concentration of test compound)
Method: as §1, §2

[8] = tested on: CCRF-CEM; test: Anti-proliferative assay (Oncodesign); settings: Homo sapiens; CCRF-CEM (BLOOD); read-out: IC50 (Concentration of test compound)
Method: as §1, §2

[9] = tested on: NIH: OVCAR-3; test: Anti-proliferative assay (Oncodesign); settings: Homo sapiens; NIH: OVCAR-3 (OVARY); read-out: IC50 (Concentration of test compound)
Method: as §1, §2

[10] = tested on: NCI-H460; test: Anti-proliferative assay (Oncodesign); settings: Homo sapiens; NCI-H460 (LUNG); read-out: IC50 (Concentration of test compound)
Method: as §1, §2

[11] = tested on: AGS; test: Anti-proliferative assay (Oncodesign); settings: Homo sapiens; AGS (STOMACH); read-out: IC50 (Concentration of test compound)
Method: as §1, §2

[12] = tested on: Daudi; test: Anti-proliferative assay (Oncodesign); settings: Homo sapiens; Daudi (BLOOD); read-out: IC50 (Concentration of test compound)
Method: as §1, §2

[13] = tested on: Caki-1; test: Anti-proliferative assay (Oncodesign); settings: Homo sapiens; Caki-1 (KIDNEY); read-out: IC50 (Concentration of test compound)
Method: as §1, §2

[14] = tested on: A-427; test: Anti-proliferative assay (Oncodesign); settings: Homo sapiens; A-427 (LUNG); read-out: IC50 (Concentration of test compound)
Method: as §1, §2

[15] = tested on: LB37-NSCLC; test: Anti-proliferative assay (Oncodesign); settings: LB37-NSCLC (LUNG); read-out: IC50 (Concentration of test compound)
Method: as §1, §2

[16] = tested on: HCT-15; test: Anti-proliferative assay (Oncodesign); settings: Homo sapiens; HCT-15 (COLON); read-out: IC50 (Concentration of test compound)
Method: as §1, §2

[17] = tested on: LB1047-RCC; test: Anti-proliferative assay (Oncodesign); settings: LB1047-RCC (KIDNEY); read-out: IC50 (Concentration of test compound)
Method: as §1, §2

[18] = tested on: Raji; test: Anti-proliferative assay (Oncodesign); settings: Homo sapiens; Raji (BLOOD); read-out: IC50 (Concentration of test compound)
Method: as §1, §2

[19] = tested on: EHEB; test: Anti-proliferative assay (Oncodesign); settings: EHEB (BLOOD); read-out: IC50 (Concentration of test compound)
Method: as §1, §2

[20] = tested on: Hs 746T; test: Anti-proliferative assay (Oncodesign); settings: Homo sapiens, Hs746T; Hs 746T (STOMACH); read-out: IC50 (Concentration of test compound)
Method: as §1, §2

[21] = tested on: CAMA-1; test: Anti-proliferative assay (Oncodesign); settings: Homo sapiens; CAMA-1 (BREAST); read-out: IC50 (Concentration of test compound)
Method: as §1, §2

[22] = tested on: J82; test: Anti-proliferative assay (Oncodesign); settings: Homo sapiens; J82 (URINARY BLADDER); read-out: IC50 (Concentration of test compound)
Method: as §1, §2

[23] = tested on: FaDu; test: Anti-proliferative assay (Oncodesign); settings: Homo sapiens; FaDu (HEAD AND NECK); read-out: IC50 (Concentration of test compound)
Method: as §1, §2

[24] = tested on: Calu-3; test: Anti-proliferative assay (Oncodesign); settings: Homo sapiens; Calu-3 (LUNG); read-out: IC50 (Concentration of test compound)
Method: as §1, §2

[25] = tested on: ZR-75-1; test: Anti-proliferative assay (Oncodesign); settings: Homo sapiens; ZR-75-1 (BREAST); read-out: IC50 (Concentration of test compound)
Method: as §1, §2

[26] = tested on: one hundred cell lines; test: Anti-proliferative assays against one hundred cell lines; settings: wide range of different cell lines
Method: as §1, with “Cultures). […]” for “Cultures).”

CC(C)c1cc(C(=O)N2Cc3ccc(CN4CCN(C)CC4)cc3C2)c(O)cc1O [(2,4-dihydroxy-5-isopropyl-phenyl)-[5-(4-methyl-piperazin-1-ylmethyl)-1,3-dihydro-isoindol-2-yl]-methanone]
IC50 [1]: > 10000 nM | IC50 [2]: 158 nM | IC50 [3]: 37 nM | IC50 [4]: 17 nM | IC50 [5]: > 10000 nM | IC50 [6]: 1480 nM | IC50 [7]: 180 nM | IC50 [8]: 107 nM | IC50 [9]: 45 nM | IC50 [10]: 118 nM | IC50 [11]: 66 nM | IC50 [12]: 136 nM | IC50 [13]: > 10000 nM | IC50 [14]: 130 nM | IC50 [15]: 63 nM | IC50 [16]: > 10000 nM | IC50 [17]: 58 nM | IC50 [18]: 881 nM | IC50 [19]: > 10000 nM | IC50 [20]: 34 nM | IC50 [21]: 22 nM | IC50 [22]: 20 nM | IC50 [23]: 29 nM | IC50 [24]: > 10000 nM | IC50 [25]: 131 nM | anti-proliferative activity [26]: potent anti-proliferative activity
